Results as given in article PMC9818021, “Targets, Mechanisms and Cytotoxicity of Half-Sandwich Ir(III) Complexes Are Modulated by Structural Modifications on the Benzazole Ancillary Ligand” (Cancers, 2022).

Experiments:
[1] = test system: BALB/c mice; test: Biodistribution (ICP-MS of organs); type: in vivo, mouse; conditions: 4 h after i.v. injection
Experimental: Biodistribution studies: BALB/c mice were injected via the tail vein with 100 µL of 1[C,NH] dissolved in PBS. Then, 4 h after the injection, the animals (n = 3) were sacrificed, and the following organs were removed: kidney, spleen, liver, heart, lung, pancreas, intestine, ovary and stomach. They were kept at −80 °C until their analysis at the Cactus-Lugo Instrumental Analysis Unit. Solutions were diluted to a final volume of 10 mL MilliQ water and measured on an Agilent 7700x-ICP-MS.

[2] = test system: gene expression (stress response, apoptosis, cell cycle genes); test: RT-qPCR differential gene expression; type: cell-based, human; conditions: vs. Control, 6 h after treatment
Experimental: Specific assays with 1[C,NH] complex were performed according to manufacturer’s instructions using the following reagents from Molecular Probes (Thermo Fisher Scientific): Measurements of ROS: Dihydroethidium (DHE, D11347) and 2′, 7′-dichlorodihydrofluorescein diacetate (H2DCFDA, D399); detection of caspases 3/7: CellEvent Caspase-3/7 Green Detection Reagent (C10423); Cell viability: Live/Dead Cell Imaging Kit (R37601); Analysis of cytosolic calcium concentration: Fluo3/AM (F23915); Analysis of MMP: Tetramethylrhodamine methyl ester perchlorate (TMRM, T668). RT-qPCR’s assays were performed with the following primers/probes from Thermo Fisher Scientific: DCP1A (Hs00218198-m1), FOSB (Hs00171851-m1), EGR1(Hs0015928-m1), ATF3 (Hs00231069-m1), DDIT3 (Hs00358796-g1), PP1R15A (Hs00169585-m1), CHAC1(Hs00225520-m1), MIR9-1 (Hs04231512-s1), ATP1B2 (Hs00155922-m1), BBC3 (Hs00248075-m1), BCL2L11 (Hs00798019-s1), PMAIP1 (Hs00560402-m1), SKP2 (Hs01021864-m1) and HIST1H1B (Hs00271207-s1). RT-qPCR experiments were performed as described.

[3] = test system: A549 cells; test: Cardiolipin oxidation (NAO, flow cytometry); type: cell-based, human; conditions: 4 h
Experimental: (§1) DNA damage was measured using EpiQuik 8-OHdG DNA Damage Quantification Direct Kit (colorimetric) (Fischer, Waltham, MA, USA, P600396); The mitochondrial cytochrome C release was evaluated using the “Millipore’s FlowCellect Cytochrome C Kit (Millipore, FCCH100110)”. Lactate dehydrogenase activity release was measured in the culture medium using Cytotoxicity Detection Kit (Roche Diagnostic, Barcelona, Spain, 11 644 793 001). Protein synthesis was determined using Click-iT Plus O-propargyl-puromycin (OPP) Protein Synthesis Assay Kit (Invitrogen™, Waltham, MA, USA). Measurement of GSH/GSSG was determined with GSH/GSSG-Glo Assay (Promega, V6611). Measurements of OCR and ECAR with Seahorse XFp (Agilent Technologies) were determined using the XFp Cell Mito Stress Test Kit (103010-100) and XFp Glycolysis Stress Test Kit (103017-100). ATP measurement was determined with Cell Titer-Glo Luminescent Cell Viability Assay (Promega, Madison, WI, USA, G7570). Determination of DNA damage using phosphorylated H2AX measurement were performed as previously described. Cardiolipin oxidation using the fluorophore Nonyl Acridine Orange (NAO, Thermo Scientific, A1372) was performed as described. Cell viability was determined by Hoechst inclusion and Propidium iodide (PI) exclusion by standard protocols. TEM analysis were performed as described. […]

[4] = test system: A549 cells; test: GSH/GSSG-Glo assay; type: cell-based, human; conditions: 1 h
Experimental: as §1

[5] = test system: gene expression (stress response, apoptosis, cell cycle genes); test: Microarray differential gene expression (Affymetrix Human Gene 2.1 ST); type: cell-based; conditions: vs. Control, 6 h after treatment
Experimental: DNA damage was measured using EpiQuik 8-OHdG DNA Damage Quantification Direct Kit (colorimetric) (Fischer, Waltham, MA, USA, P600396); The mitochondrial cytochrome C release was evaluated using the “Millipore’s FlowCellect Cytochrome C Kit (Millipore, FCCH100110)”. Lactate dehydrogenase activity release was measured in the culture medium using Cytotoxicity Detection Kit (Roche Diagnostic, Barcelona, Spain, 11 644 793 001). Protein synthesis was determined using Click-iT Plus O-propargyl-puromycin (OPP) Protein Synthesis Assay Kit (Invitrogen™, Waltham, MA, USA). Measurement of GSH/GSSG was determined with GSH/GSSG-Glo Assay (Promega, V6611). Measurements of OCR and ECAR with Seahorse XFp (Agilent Technologies) were determined using the XFp Cell Mito Stress Test Kit (103010-100) and XFp Glycolysis Stress Test Kit (103017-100). ATP measurement was determined with Cell Titer-Glo Luminescent Cell Viability Assay (Promega, Madison, WI, USA, G7570). Determination of DNA damage using phosphorylated H2AX measurement were performed as previously described. Cardiolipin oxidation using the fluorophore Nonyl Acridine Orange (NAO, Thermo Scientific, A1372) was performed as described. Cell viability was determined by Hoechst inclusion and Propidium iodide (PI) exclusion by standard protocols. TEM analysis were performed as described. Cell cycle analysis by flow cytometry and microarrays analysis were performed as described. Arrays data have been deposited in the ArrayExpress database at EMBL-EBI (www.ebi.ac.uk/arrayexpress) under accession number E-MTAB-860 (10 November 2022)
Studies of the effect of 1[C,NH] on gene expression were performed and assessed 6 h after treatment, in a middle phase, when most cells were still alive (see S.I. Movie S2) but already with characteristic morphological features of apoptosis (Movie S1). Gene expression profiles of cells was determined by Affymetrix Human Gene 2.1 ST Array Plate in three independent experiments. In order to confirm the microarray data, we selected some genes involved in several key pathways: stress response, apoptosis and cell cycle to validate the changes in the expression by RT-qPCR. Results indicated a good correlation between microarray analysis and RT-qPCR. (Table S11). […] Note that not all genes are annotated with these databases. However, the negative regulation of metabolic process and negative regulation of macromolecule metabolic process are highly represented, and ~38% (84) of all genes could be classified in this way. […] The effect of 1[C,NH] on cell cycle progression was further assessed by flow cytometry. […] In summary, mRNA expression analysis is in good agreement with the elevation of ROS, oxidative stress response, cell cycle arrest and induction of apoptosis.

[6] = test system: CHOP; test: CHOP induction (CHOP::GFP plasmid); type: cell-based, human; conditions: HEK293, 9.7 µM, 24 h time-lapse
Experimental: CHOP induction. HEK293 cells were seeded at 8 × 10^5 cell/well in 24-well plates and transfected with CHOP::GFP plasmid (Addgene plasmid #21898; http://n2t.net/addgene:21898; RRID:Addgene_21898, 10 November 2022) using the transfection reagent DreamFectTM Gold (OZ Bioscience, Cat. N. º LM80250). After 24 h incubation, the treatments were added: 1[C,NH] 9.7 µM; tunicamycin 0.5 µM as positive control. Cells were stained with propidium iodide (1 µg/mL). Time-lapse images were acquired every 30 min for 24 h.

[7] = Stopped flow kinetics of DMSO substitution by OH-; type: physicochemical
Experimental: The slow kinetic measurements were performed with the previous spectrophotometer while the fast kinetic measurements were performed in a stopped flow Bio-Logic SFM-300 spectrophotometer with an absorbance detection system and dead time below 3 ms. The kinetic curves, obtained averaging out at least five shots, were analysed with the Jandel (AISN software, Mapleton, OR) fitting package.

Cc1c(C)c(C)[c-](C)c1C.[Cl][Ir]1[c]2ccccc2-c2[nH]c3ccccc3[n+]21 [1[C,NH], [(η^5-Cp*)IrCl(κ^2-N,C-pbim)]]
Tissues with the highest accumulation [1]: liver, kidneys and lungs | ATF3 RT-qPCR (2-ΔΔCt) [2]: > 100 | ATP1B2 RT-qPCR (2-ΔΔCt) [2]: 19.5 | BBC3 RT-qPCR (2-ΔΔCt) [2]: 3.7 | BCL2L11 RT-qPCR (2-ΔΔCt) [2]: 3.6 | CHAC1 RT-qPCR (2-ΔΔCt) [2]: 3.5 | DDIT3 RT-qPCR (2-ΔΔCt) [2]: 7.8 | EGR1 RT-qPCR (2-ΔΔCt) [2]: > 100 | FOSB RT-qPCR (2-ΔΔCt) [2]: > 100 | HIST1H1B RT-qPCR (2-ΔΔCt) [2]: 0.1 | MIR9-1 RT-qPCR (2-ΔΔCt) [2]: > 100 | PMAIP1 RT-qPCR (2-ΔΔCt) [2]: 3.4 | PPP1R15A RT-qPCR (2-ΔΔCt) [2]: 14.8 | SKP2 RT-qPCR (2-ΔΔCt) [2]: 0.3 | Cardiolipin oxidation [3]: induced CL oxidation | GSH/GSSG ratio [4]: decreased the GSH/GSSG ratio | ATF3 Microarray (Fold Change (linear)) [5]: 37 | ATP1B2 Microarray (Fold Change (linear)) [5]: 34.8 | BBC3 Microarray (Fold Change (linear)) [5]: 3.3 | BCL2L11 Microarray (Fold Change (linear)) [5]: 5.1 | CHAC1 Microarray (Fold Change (linear)) [5]: 3 | DDIT3 Microarray (Fold Change (linear)) [5]: 23 | EGR1 Microarray (Fold Change (linear)) [5]: > 100 | FOSB Microarray (Fold Change (linear)) [5]: > 100 | HIST1H1B Microarray (Fold Change (linear)) [5]: -6.6 | MIR9-1 Microarray (Fold Change (linear)) [5]: 26.8 | PMAIP1 Microarray (Fold Change (linear)) [5]: 7.1 | PPP1R15A Microarray (Fold Change (linear)) [5]: 11 | SKP2 Microarray (Fold Change (linear)) [5]: -4.7 | CHOP expression [6]: increased expression

Cc1c(C)c(C)[c-](C)c1C.[Cl][Ir]1[O]c2ccccc2-c2sc3ccccc3[n+]21 [8[CO,S], [(η^5-Cp*)IrCl(κ^2-O,N-hpbtz)]]
k (substitution of DMSO by OH-) ([7]; pH = 10.2): 39 s⁻¹ | k (substitution of DMSO by OH-) ([7]; pH = 11.5): 112 s⁻¹
